Data taken from patent publication US20260053811A1, “METHODS OF TREATING HYPERTENSION IN OBESE SUBJECTS” (Mineralys Therapeutics, Inc., priority 2022, published 2026).

Tested on: hypertensive subjects
Assay: Clinical laboratory evaluations (chemistry incl. serum creatinine, hematology, coagulation, urinalysis)
Type: in vivo, human
Excerpt: Safety endpoints of this study are: • (a) Incidence and severity of all spontaneously reported adverse events (AEs) • (b) Changes in vital signs (standing SBP, standing DBP, body temperature, heart rate, and respiratory rate) • (c) Changes in electrocardiogram parameters (including cardiac intervals: PR, QRS, QT, and corrected QT interval using Fridericia's formula) • (d) Changes in clinical laboratory assessments (hematology, chemistry, coagulation, and urinalysis) • (e) Change in office-measured SBP from Study Week 8 (end-of-treatment period to end of follow up (i.e. end of Study Week 12 for Part 1 and end of Study 10 for Part 2).

## CC(=O)N[C@H]1CC[C@H](NC(=O)CN2CCN(c3nncc(-c4ccc(C)cc4)n3)CC2)CC1 [Compound A HBr]
Part 1 or Part 2
  Clinical laboratory parameters (chemistry, hematology, coagulation, urinalysis), change from baseline to Week 8: no meaningful changes
Active treatment cohorts, Parts 1 and 2
  Serum creatinine levels compared with placebo: increased
